≈ marks a conversion by molar mass, not a printed value. Read-outs that look alike come from different tables or passages of the source.
Tests used:
[1] = test system: S. aureus strain NCTC 8325; assay: minimal inhibiting concentration (MIC) in liquid bacterial culture; format: cell-based; details: overnight 37° C.
Experimental: (§1) 1 ml of an appropriate bacterial broth for the standard laboratory S. aureus strain NCTC 8325 were inoculated with 1*10^6 cfu. The cultures were kept overnight at 37° C. with gentle shaking 300 rpm in the presence of compounds AVU1Acid, AVU1AAc, AVU1AA or VK273 according to the present invention at different concentrations or dimethyl sulfoxide (DMSO) as control. Different beta-lactone virulence inhibitors were used as reference compounds. Following overnight incubation the optical density was measured in order to determine the minimal inhibiting concentration (MIC), which is defined as the lowest concentration of an antimicrobial that will inhibit the visible growth of a microorganism after overnight incubation. A 100 μl fraction of the supernatant of the grown bacterial cultures was subsequently analysed for the content of secreted bacterial hemolysins by addition of sheep red blood cells (10% v/v in PBS) and the measurement of the optical density at 410 nm after 30 min incubation at 37° C.

[2] = test system: S. aureus strain NCTC 8325; assay: liquid culture-based hemolysis assay (secreted hemolysins, sheep red blood cells); format: cell-based
Experimental: The inhibition of hemolysin production has thus been further analysed in liquid bacterial cultures in order to evaluate their potential effects on bacterial growth simultaneously. Besides AVU1Acid, AVU1AAc, AVU1AA and VK273 the following further compounds were tested in liquid bacterial cultures:
as §1
The following results were obtained in further liquid culture-based hemolysis assays. Since the assays were performed at different times with different charges of sheep red blood cells AVU1 has been tested as a reference substance in each assay. The resulting EC50 values determined for the tested compounds have to be assessed with respect to the EC50 value determined for AVU1.

[3] = biological target: T1, CIpP protease from S. aureus NCTC8325 (SaCIpP) (Staphylococcus aureus, UniProt Q2G036); assay: in vitro inhibition of recombinant S. aureus CIpP with SLY-AMC substrate; format: biochemical; details: inhibitor 2 mM (1000×), 30 min RT; SLY-AMC 200 μM; FIG. 3
T1 construct: made in house; host or cells: E. coli
T1 sequence (Q2G036 1-195): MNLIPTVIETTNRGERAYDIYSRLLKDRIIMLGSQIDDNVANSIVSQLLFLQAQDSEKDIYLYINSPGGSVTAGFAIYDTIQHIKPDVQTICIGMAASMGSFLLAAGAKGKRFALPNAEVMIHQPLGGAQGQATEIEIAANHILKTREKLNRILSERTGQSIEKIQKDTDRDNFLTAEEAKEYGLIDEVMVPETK
Experimental: The CIpP protease from S. aureus NCTC8325 (SaCIpP) was recombinantly overexpressed in E. coli and purified in order to investigate enzyme inhibition using SLY-AMC (N-succinyl-Leu-Tyr-7-amido-4-methylcoumarin) as fluorogenic model substrate.
Precisely, 9 μl of SaCIpP in buffered solution (final concentration 0.05 mg/ml, 2 μM; buffer: 100 mM NaCl, 20 mM Tris, pH 7.0) were incubated in the presence of 1 μl of various inhibitors (final concentration 2 mM=1000×) for 30 min at room temperature (RT). Subsequently, SLY-AMC was added to a final concentration of 200 μM and the increase in fluorescence due to enzymatic substrate proteolysis was measured using a TECAN GENios Pro™ plate reader at 380/440 nm (excitation/emission) at time intervals of 60 s over 40 min at 37° C. The enzymatic activity was determined as the slope of fluorescence (2=440 nm) over time. As positive controls, the in vivo active beta-lactone compound AVU1 (“U1”; WO 2009/106211) and the in vitro potent CIpP beta-lactone inhibitor D3 (WO 2009/106211) were employed.

[4] = test system: S. aureus NCTC 8325; assay: agar plate-based hemolysis assay on sheep blood agar; format: cell-based; details: FIG. 1; over night at 37° C.
Description: Several compounds of the invention as well as reference compounds have been tested against S. aureus NCTC 8325 on sheep blood agar. Hemolysins are key virulence factors of S. aureus that contribute to the pathogenicity of these bacteria. The production of hemolysins can be easily monitored by lysis of sheep blood and generation of a clear zone around the bacterial colonies on the agar plate. Hemolysins are co-regulated with the majority of important virulence factors and have been qualified in previous studies as a reliable measure of agr quorum sensing regulated virulence (T. Böttcher, S. A. Sieber, J Am Chem Soc 2008, 130, 14400).
Agar plate-based hemolysis was tested on 5% sheep blood agar plates (Heipha Diagnostika, Eppelheim, Germany). Sterile circles of Whatman® cards (No. 1, Schleicher & Schuell) with 5.5 mm diameter were placed on the agar plates and inoculated with 2.5 μL of the corresponding lactone/DMSO and 2.5 μL stationary phase culture of S. aureus NCTC 8325 diluted to OD600=0.13. The plates were incubated over night at 37° C. and the diameters of the zones around the bacterial colonies were precisely measured using a vernier caliper. Doses of the compounds required to produce the half maximum effect (ED50) were calculated from curve fittings by Microcal™ Origin 6.0.

[5] = Staphylococcus aureus, NCTC8325, Assay 1, read-out: MIC
[6] = Staphylococcus aureus, NCTC8325, Erythrocyte, Assay 1, hemolysin production
[7] = Assay 2, hemolysin production, assess relative to AVU1
[8] = Assay 4, hemolysin production, assess relative to AVU1
[9] = Staphylococcus aureus, NCTC8325, Assay 3, read-out: MIC
[10] = Staphylococcus aureus, NCTC8325, Erythrocyte, Assay 3, hemolysin production, assess relative to AVU1

## C=CCCCCCCC[C@H]1C(=O)O[C@@H]1CCCc1ccccc1 [AVU7, reference compound]
[1]; [5]
  MIC: > 1000 µM
[2]; [6]
  EC50: 22 µM

## C#CCCCCCCCC(C(N)=O)C(O)CCc1ccc(C(=O)c2ccccc2)cc1 (stereo not shown) [JS-65, 5-(4-Benzoylphenyl)-3-hydroxy-2-(8-noninyl)-pentanamide]
[1]; Assay 2, read-out: MIC
  MIC: >1000 µM
[2]; [7]
  EC50: 1 to 5 µM

## C=CCCCCCCCC1OC(=O)C1CCc1ccccc1 (stereo not shown) [AVU4, reference compound]
[1]; [5]
  MIC: > 1000 µM
[2]; [6]
  EC50: 435 µM

## C=CCCCCCCCC(C(=O)OC)C(O)CCc1ccccc1 (stereo not shown) [AVU1AME]
[3]
  inhibition of SaCIpP: inhibit SaCIpP at an at least comparable level as the in vivo active beta-lactone reference compound AVU1
[4]
  inhibition of hemolysis (virulence inhibition) on sheep blood agar: moderate

## C=CCCCCCCC[C@H]1C(=O)O[C@@H]1Cc1ccccc1 [AVU6, reference compound]
[1]; [5]
  MIC: > 1000 µM
[2]; [6]
  EC50: 440 µM

## C#CCCCCCCC[C@H](C(=O)OC)[C@H](O)CCc1ccc(C2(C(F)(F)F)N=N2)cc1 (relative stereo) [JS-14_1, Methyl (3R*,2S*)-3-Hydroxy-2-(8-noninyl)-5-(4-(3-trifluoromethyl-3H-diazirinyl)-phenyl)-pentanoate]
[1]; Assay 4, read-out: MIC
  MIC: >1000 µM
[2]; [8]
  EC50: 166 µM

## C=CCCCCCCC[C@@H](C(N)=O)[C@H](O)CCCc1ccccc1 (relative stereo) [VK375, (2R*,3R*)-3-Hydroxy-2-(non-8-enyl)-6-phenylhexanamide]
[1]; Assay 3, read-out: MIC
  MIC: >1000 µM
[1]; [9]
  MIC: > 1000 µM
[2]; [10]
  EC50: 1 to 5 µM

## C#CCCCCCCC[C@@H](C(N)=O)[C@H](O)CCc1ccc(C2(C(F)(F)F)N=N2)cc1 (relative stereo) [JS-14_2Amid, (3R*,2R*)-3-Hydroxy-2-(8-noninyl)-5-(4-(3-trifluoromethyl-3H-diazirinyl)-phenyl)-pentanamide]
[1]; Assay 4, read-out: MIC
  MIC: >1000 µM
[2]; [8]
  EC50: 2.8 µM

## C=CCCCCCCCC(C(=O)O)C(CCc1ccccc1)OC(C)=O (stereo not shown) [AVU1AAc, 3-acetoxy-2-(non-8-enyl)-5-phenylpentanoic acid]
[1]; [5]
  MIC: 50 to 100 µM (≈ 18 to 36 µg/mL)
[3]
  inhibition of SaCIpP: inhibit SaCIpP at an at least comparable level as the in vivo active beta-lactone reference compound AVU1
[4]
  inhibition of hemolysis (virulence inhibition) on sheep blood agar: high
[2]; [6]
  EC50: 2.43 µM

## NC(=O)[C@H](CCc1ccccc1)[C@H](O)CCc1ccccc1 (relative stereo) [VK403-1, (2R*,3R*)-3-Hydroxy-2-(2-phenylethyl)-5-phenylpentanamide]
[1]; Assay 3, read-out: MIC
  MIC: >1000 µM
[1]; [9]
  MIC: > 1000 µM
[2]; [10]
  EC50: 50 to 100 µM

## C#CCCCCCCC[C@H](C(=O)O)[C@H](O)CCc1ccc(C2(C(F)(F)F)N=N2)cc1 (relative stereo) [JS-11_1, (3R*,2S*)-3-Hydroxy-2-(8-noninyl)-5-(4-(3-trifluoromethyl-3H-diazirinyl)-phenyl)-pentanoic acid]
[1]; Assay 4
  MIC: 10 to 50 µM
[2]; [8]
  EC50: 3.6 µM

## C#CCCCCCCC[C@@H](C(=O)OC)[C@H](O)CCc1ccc(C2(C(F)(F)F)N=N2)cc1 (relative stereo) [JS-14_2, Methyl (3R*,2R*)-3-Hydroxy-2-(8-noninyl)-5-(4-(3-trifluoromethyl-3H-diazirinyl)-phenyl)-pentanoate]
[1]; Assay 4, read-out: MIC
  MIC: >1000 µM
[2]; [8]
  EC50: 64 µM

## C#CCCCCCCC[C@H](C(N)=O)[C@H](O)CCc1ccc(C2(C(F)(F)F)N=N2)cc1 (relative stereo) [JS-14_1Amid, (3R*,2S*)-3-Hydroxy-2-(8-noninyl)-5-(4-(3-trifluoromethyl-3H-diazirinyl)-phenyl)-pentanamide]
[1]; Assay 4, read-out: MIC
  MIC: >1000 µM
[2]; [8]
  EC50: 2.3 µM

## C=CCCCCCCCC(C(=O)O)C(O)CCc1ccccc1 (stereo not shown) [AVU1Acid, 3-hydroxy-2-(non-8-enyl)-5-phenylpentanoic acid]
[1]; [5]
  MIC: 50 to 100 µM (≈ 15.9 to 31.8 µg/mL)
[4]
  inhibition of hemolysis (virulence inhibition) on sheep blood agar: potent virulence inhibitors
[2]; [6]
  EC50: 1.18 µM

## CCCCCCCCC[C@@H](C(N)=O)[C@H](O)CCc1ccccc1 (relative stereo) [VK453-1, (2R*,3R*)-3-Hydroxy-2-nonyl-5-phenylpentanamide]
[1]; Assay 2, read-out: MIC
  MIC: >1000 µM
[1]; Staphylococcus aureus, NCTC8325, Assay 2, read-out: MIC
  MIC: > 1000 µM
[2]; Staphylococcus aureus, NCTC8325, Erythrocyte, Assay 2, hemolysin production, assess relative to AVU1
  EC50: 1 to 5 µM

## C#CCCCCCCC[C@@H](C(=O)O)[C@H](O)CCc1ccc(C2(C(F)(F)F)N=N2)cc1 (relative stereo) [JS-11_2, (3R*,2R*)-3-Hydroxy-2-(8-noninyl)-5-(4-(3-trifluoromethyl-3H-diazirinyl)-phenyl)-pentanoic acid]
[1]; Assay 4
  MIC: 10 to 50 µM
[2]; [8]
  EC50: 2.2 µM

## C#CCCCCCCCC(C(=O)O)C(O)CCc1ccc(C(=O)c2ccccc2)cc1 (stereo not shown) [JS-64, 5-(4-Benzoylphenyl)-3-hydroxy-2-(8-noninyl)-pentanoic acid]
[1]; Assay 2, read-out: MIC
  MIC: >1000 µM
[2]; [7]
  EC50: 1 to 5 µM

## C=CCCCCCCCC(C(=O)SCC(NC(C)=O)C(=O)OC)C(CCc1ccccc1)OC(C)=O (stereo not shown) [AVU1AAcTE, reference compound]
[4]
  inhibition of hemolysis (virulence inhibition) on sheep blood agar: only low efficiency and incomplete inhibition of hemolysis

## C=CCCCCCCC[C@H]1C(=O)O[C@@H]1CCc1cc(F)cc(F)c1 [AVU5, reference compound]
[1]; [5]
  MIC: > 1000 µM
[2]; [6]
  EC50: 16.1 µM

## C=CCCCCCCC[C@@H](C(N)=O)[C@H](O)Cc1ccccc1 (relative stereo) [VK508-3, (2R*,3R*)-3-Hydroxy-2-(non-8-enyl)-4-phenylbutanamide]
[1]; Assay 3, read-out: MIC
  MIC: >1000 µM
[1]; [9]
  MIC: > 1000 µM
[2]; [10]
  EC50: 10 to 50 µM

Source: patent US20140323457A1, “BETA-O/S/N FATTY ACID BASED COMPOUNDS AS ANTIBACTERIAL AND ANTIPROTOZOAL AGENTS” (LUDWIG-MAXIMILIANS-UNIVERSITÄT MÜNCHEN, priority 2011, published 2014)
